± gives the expanded uncertainty stated by the source.
Assay: molar heat capacity at constant pressure
Conditions: 101.33 kPa, Small (less than 1 g) adiabatic calorimetry

CCC(=O)O[C@]1(C(=O)COC(C)=O)CC[C@H]2[C@@H]3C[C@H](C)C4=CC(=O)C=C[C@]4(C)[C@H]3[C@@H](O)C[C@@]21C [Methylprednisolone aceponate]
Conditions	molar heat capacity at constant pressure [J/K/mol]
5 K, Crystal 2	1.87 ± 0.091
7.53 K, Crystal 2	6.019 ± 0.26
7.84 K, Crystal 2	6.56 ± 0.28
8.09 K, Crystal 2	7.014 ± 0.3
8.41 K, Crystal 2	7.67 ± 0.33
8.68 K, Crystal 2	8.278 ± 0.35
9 K, Crystal 2	8.893 ± 0.38
9.32 K, Crystal 2	9.535 ± 0.4
9.64 K, Crystal 2	10.2 ± 0.43
9.98 K, Crystal 2	10.97 ± 0.46
10 K, Crystal 2	11 ± 0.46
10.31 K, Crystal 2	11.76 ± 0.49
10.64 K, Crystal 2	12.47 ± 0.52
10.99 K, Crystal 2	13.1 ± 0.55
11.33 K, Crystal 2	13.78 ± 0.58
11.69 K, Crystal 2	14.32 ± 0.6
12.05 K, Crystal 2	15.03 ± 0.63
12.88 K, Crystal 2	16.64 ± 0.69
14.18 K, Crystal 2	19.38 ± 0.8
15 K, Crystal 2	21.09 ± 0.87
15.44 K, Crystal 2	22.08 ± 0.91
16.83 K, Crystal 2	25.33 ± 1.1
18.19 K, Crystal 2	28.78 ± 1.2
19.58 K, Crystal 2	32.36 ± 1.3
20 K, Crystal 2	33.51 ± 1.4
22.18 K, Crystal 2	39.37 ± 0.51
25 K, Crystal 2	47.69 ± 0.6
25.63 K, Crystal 2	49.56 ± 0.61
29.09 K, Crystal 2	59.46 ± 0.7
30 K, Crystal 2	61.69 ± 0.68
32.6 K, Crystal 2	68.53 ± 0.76
36.13 K, Crystal 2	78.23 ± 0.86
39.68 K, Crystal 2	88.41 ± 0.97
40 K, Crystal 2	89.06 ± 0.97
43.24 K, Crystal 2	97.8 ± 0.57
46.82 K, Crystal 2	106.2 ± 0.6
50 K, Crystal 2	115 ± 0.7
50.41 K, Crystal 2	116.3 ± 0.7
54 K, Crystal 2	126.6 ± 0.7
57.6 K, Crystal 2	136 ± 0.8
60 K, Crystal 2	142.6 ± 0.8
61.21 K, Crystal 2	145.2 ± 0.8
64.82 K, Crystal 2	155 ± 0.9
68.42 K, Crystal 2	163.9 ± 0.9
70 K, Crystal 2	167.5 ± 0.9
72.02 K, Crystal 2	173 ± 1
75.66 K, Crystal 2	181.2 ± 1
79.32 K, Crystal 2	190.9 ± 1.1
80 K, Crystal 2	193.1 ± 1.1
82.52 K, Crystal 2	200.1 ± 1.1
82.95 K, Crystal 2	200.9 ± 1.1
85.14 K, Crystal 2	206.2 ± 1.2
86.58 K, Crystal 2	209.8 ± 1.2
87.56 K, Crystal 2	212.6 ± 1.2
89.97 K, Crystal 2	218.2 ± 1.2
90 K, Crystal 2	218.2 ± 1.2
92.39 K, Crystal 2	223.5 ± 1.2
94.8 K, Crystal 2	229 ± 1.2
97.21 K, Crystal 2	234.8 ± 1.2
97.3 K, Crystal 2	235.6 ± 1.2
99.62 K, Crystal 2	240.5 ± 1.3
100 K, Crystal 2	241.2 ± 1.3
100.7 K, Crystal 2	243.6 ± 1.3
102.02 K, Crystal 2	245.8 ± 1.3
104.08 K, Crystal 2	251 ± 1.3
104.42 K, Crystal 2	251.6 ± 1.3
106.93 K, Crystal 2	257.8 ± 1.4
107.83 K, Crystal 2	258.9 ± 1.4
109.22 K, Crystal 2	263 ± 1.4
109.71 K, Crystal 2	263.2 ± 1.4
110 K, Crystal 2	264.5 ± 1.4
111.62 K, Crystal 2	268.1 ± 1.4
112.99 K, Crystal 2	270.3 ± 1.4
114.02 K, Crystal 2	273.7 ± 1.4
116 K, Crystal 2	277 ± 1.4
116.42 K, Crystal 2	278.5 ± 1.5
118.81 K, Crystal 2	283.7 ± 1.5
119.02 K, Crystal 2	283.2 ± 1.5
120 K, Crystal 2	286.4 ± 1.5
121.2 K, Crystal 2	288.9 ± 1.5
122.04 K, Crystal 2	290.1 ± 1.5
123.59 K, Crystal 2	295.1 ± 1.5
125.06 K, Crystal 2	297.7 ± 1.5
125.98 K, Crystal 2	300 ± 1.6
128.08 K, Crystal 2	305.6 ± 1.6
128.36 K, Crystal 2	306 ± 1.6
130 K, Crystal 2	309.4 ± 1.6
130.74 K, Crystal 2	310.7 ± 1.6
131.09 K, Crystal 1	312.1 ± 1.6
133.12 K, Crystal 1	311.6 ± 1.6
134.11 K, Crystal 1	310 ± 1.6
135.5 K, Crystal 1	309.5 ± 1.6
137.13 K, Crystal 1	310.6 ± 1.6
137.88 K, Crystal 1	312.2 ± 1.6
140 K, Crystal 1	315.4 ± 1.6
140.15 K, Crystal 1	315.8 ± 1.6
140.25 K, Crystal 1	315.6 ± 1.6
142.62 K, Crystal 1	319.4 ± 1.7
143.15 K, Crystal 1	320.6 ± 1.7
144.98 K, Crystal 1	324.5 ± 1.7
146.15 K, Crystal 1	326.3 ± 1.7
147.34 K, Crystal 1	328.3 ± 1.7
149.14 K, Crystal 1	331.8 ± 1.7
149.69 K, Crystal 1	333.1 ± 1.7
150 K, Crystal 1	333 ± 1.7
152.05 K, Crystal 1	336.9 ± 1.7
152.14 K, Crystal 1	336.7 ± 1.7
154.41 K, Crystal 1	341 ± 1.8
155.13 K, Crystal 1	342 ± 1.8
156.76 K, Crystal 1	344 ± 1.8
158.09 K, Crystal 1	347.4 ± 1.8
159.09 K, Crystal 1	348.8 ± 1.8
160 K, Crystal 1	351 ± 1.8
161.07 K, Crystal 1	352.5 ± 1.8
161.43 K, Crystal 1	353.5 ± 1.8
163.77 K, Crystal 1	357.7 ± 1.8
164.05 K, Crystal 1	358.2 ± 1.8
166.12 K, Crystal 1	361.8 ± 1.9
167.01 K, Crystal 1	363.8 ± 1.9
168.46 K, Crystal 1	366.9 ± 1.9
169.98 K, Crystal 1	368.9 ± 1.9
170 K, Crystal 1	368.7 ± 1.9
170.8 K, Crystal 1	371.1 ± 1.9
172.94 K, Crystal 1	373.7 ± 1.9
173.13 K, Crystal 1	375 ± 1.9
175.46 K, Crystal 1	378.6 ± 1.9
175.89 K, Crystal 1	379.5 ± 1.9
177.8 K, Crystal 1	381 ± 2
178.84 K, Crystal 1	383.9 ± 2
180 K, Crystal 1	386.3 ± 2
180.1 K, Crystal 1	385.2 ± 2
181.78 K, Crystal 1	389.3 ± 2
182.38 K, Crystal 1	390.4 ± 2
184.68 K, Crystal 1	394.6 ± 2
184.72 K, Crystal 1	394.9 ± 2
186.99 K, Crystal 1	398.4 ± 2
187.66 K, Crystal 1	399.4 ± 2
189.31 K, Crystal 1	403.5 ± 2.1
190 K, Crystal 1	404 ± 2.1
190.59 K, Crystal 1	405.5 ± 2.1
191.61 K, Crystal 1	407.4 ± 2.1
193.51 K, Crystal 1	410.5 ± 2.1
193.93 K, Crystal 1	410.9 ± 2.1
196.2 K, Crystal 1	415.5 ± 2.1
196.43 K, Crystal 1	414.4 ± 2.1
198.49 K, Crystal 1	418.9 ± 2.1
199.33 K, Crystal 1	420.1 ± 2.1
200 K, Crystal 1	421.8 ± 2.2
200.78 K, Crystal 1	422.8 ± 2.2
202.47 K, Crystal 1	425.8 ± 2.2
203.07 K, Crystal 1	427.7 ± 2.2
205.36 K, Crystal 1	432.9 ± 2.2
205.78 K, Crystal 1	432.4 ± 2.2
207.65 K, Crystal 1	435.8 ± 2.2
209.13 K, Crystal 1	438 ± 2.2
209.94 K, Crystal 1	439.7 ± 2.2
210 K, Crystal 1	439.9 ± 2.2
212.24 K, Crystal 1	444.3 ± 2.3
212.49 K, Crystal 1	444.8 ± 2.3
214.54 K, Crystal 1	448.4 ± 2.3
215.85 K, Crystal 1	450.6 ± 2.3
217 K, Crystal 1	451.2 ± 2.3
219.13 K, Crystal 1	456 ± 2.3
219.21 K, Crystal 1	456.5 ± 2.3
220 K, Crystal 1	458.2 ± 2.3
221.43 K, Crystal 1	460.8 ± 2.3
222.56 K, Crystal 1	463.6 ± 2.4
223.73 K, Crystal 1	465.6 ± 2.4
226.03 K, Crystal 1	469.3 ± 2.4
228.32 K, Crystal 1	473.5 ± 2.4
230 K, Crystal 1	476.5 ± 2.4
230.63 K, Crystal 1	477.8 ± 2.4
232.91 K, Crystal 1	481.1 ± 2.4
235.22 K, Crystal 1	485.8 ± 2.5
237.52 K, Crystal 1	490.6 ± 2.5
239.83 K, Crystal 1	495.3 ± 2.5
240 K, Crystal 1	494.9 ± 2.5
242.15 K, Crystal 1	498.7 ± 2.5
244.46 K, Crystal 1	503.6 ± 2.6
246.77 K, Crystal 1	507.1 ± 2.6
249.09 K, Crystal 1	511.5 ± 2.6
250 K, Crystal 1	513.6 ± 2.6
251.4 K, Crystal 1	516.4 ± 2.6
253.72 K, Crystal 1	521 ± 2.6
255.92 K, Crystal 1	524.6 ± 2.7
256.03 K, Crystal 1	524.6 ± 2.7
258.35 K, Crystal 1	529.7 ± 2.7
259.52 K, Crystal 1	530.8 ± 2.7
260 K, Crystal 1	532.3 ± 2.7
260.9 K, Crystal 1	534.6 ± 2.7
262.9 K, Crystal 1	537.3 ± 2.7
262.99 K, Crystal 1	536.3 ± 2.7
265.31 K, Crystal 1	542.1 ± 2.7
266.27 K, Crystal 1	542.9 ± 2.7
267.63 K, Crystal 1	546.6 ± 2.8
269.63 K, Crystal 1	548.4 ± 2.8
269.94 K, Crystal 1	551.7 ± 2.8
270 K, Crystal 1	550.2 ± 2.8
271.74 K, Crystal 1	553.4 ± 2.8
272.99 K, Crystal 1	555.5 ± 2.8
274.21 K, Crystal 1	556.6 ± 2.8
276.35 K, Crystal 1	562.2 ± 2.8
276.54 K, Crystal 1	562 ± 2.8
278.86 K, Crystal 1	565.7 ± 2.9
279.7 K, Crystal 1	568.4 ± 2.9
280 K, Crystal 1	568.6 ± 2.9
281.15 K, Crystal 1	570.9 ± 2.9
283.05 K, Crystal 1	574.7 ± 2.9
283.4 K, Crystal 1	575.9 ± 2.9
285.69 K, Crystal 1	580.8 ± 2.9
286.39 K, Crystal 1	581.4 ± 2.9
287.93 K, Crystal 1	584.1 ± 2.9
289.74 K, Crystal 1	587.6 ± 3
290 K, Crystal 1	588.2 ± 3
290.2 K, Crystal 1	587.9 ± 3
292.47 K, Crystal 1	592.6 ± 3
293.07 K, Crystal 1	594.1 ± 3
294.75 K, Crystal 1	598.5 ± 3
296.41 K, Crystal 1	600.8 ± 3
297.02 K, Crystal 1	602.8 ± 3
298.15 K, Crystal 1	604.8 ± 3
299.28 K, Crystal 1	607.2 ± 3.1
299.74 K, Crystal 1	606.1 ± 3.1
300 K, Crystal 1	608.6 ± 3.1
301.54 K, Crystal 1	611.3 ± 3.1
303.07 K, Crystal 1	615.7 ± 3.1
303.8 K, Crystal 1	617.2 ± 3.1
306.05 K, Crystal 1	621.4 ± 3.1
306.4 K, Crystal 1	622.2 ± 3.1
308.26 K, Crystal 1	624.1 ± 3.1
309.65 K, Crystal 1	627.8 ± 3.2
310 K, Crystal 1	628.6 ± 3.2
310.51 K, Crystal 1	629.5 ± 3.2
312.76 K, Crystal 1	633 ± 3.2
312.99 K, Crystal 1	634.1 ± 3.2
315.01 K, Crystal 1	636.6 ± 3.2
316.33 K, Crystal 1	639.9 ± 3.2
317.25 K, Crystal 1	644.1 ± 3.2
319.5 K, Crystal 1	647.2 ± 3.3
319.67 K, Crystal 1	646.8 ± 3.3
320 K, Crystal 1	647.5 ± 3.3
321.75 K, Crystal 1	651.6 ± 3.3
323.01 K, Crystal 1	652.2 ± 3.3
324 K, Crystal 1	655.2 ± 3.3
326.24 K, Crystal 1	660 ± 3.3
326.36 K, Crystal 1	659.5 ± 3.3
328.49 K, Crystal 1	664.4 ± 3.3
329.71 K, Crystal 1	665.6 ± 3.3
330 K, Crystal 1	666.6 ± 3.4
330.74 K, Crystal 1	670 ± 3.4
332.99 K, Crystal 1	672.4 ± 3.4
333.06 K, Crystal 1	673.1 ± 3.4
335.24 K, Crystal 1	679.6 ± 3.4
336.41 K, Crystal 1	679.8 ± 3.4
337.49 K, Crystal 1	684.3 ± 3.4
339.74 K, Crystal 1	691.4 ± 3.5
339.75 K, Crystal 1	688.9 ± 3.5
340 K, Crystal 1	691.3 ± 3.5
341.99 K, Crystal 1	697.1 ± 3.5
343.1 K, Crystal 1	701.5 ± 3.5
346 K, Crystal 1	713.9 ± 3.6
346.44 K, Crystal 1	717.2 ± 3.6
